These results are taken from patent US8273780B2, “Polycyclic antagonists of lysophosphatidic acid receptors” (Amira Pharmaceuticals, Inc., priority 2009, dated 2012).

As usually defined, the IC50 is the concentration that inhibits the measured activity by half.

In experiment [1] the target is T1, Human LPA1 (Homo sapiens, UniProt Q92633).
T1 construct: the full-length cDNA for human LPA1 was obtained by PCR of the reverse transcription reaction; expressed in transfected cells
As to the kind of experiment: LPA1 calcium flux assay. It is filed as cell-based. As to conditions: CHO cells expressing human LPA1, 10 nM LPA; read-out: HLPA1 Ca Flux IC50. Here is the method:
A 1.1 kb cDNA encoding the human LPA1 receptor was cloned from human lung. Human lung RNA (Clontech Laboratories, Inc. USA) was reverse transcribed using the RETROscript kit (Ambion, Inc.) and the full-length cDNA for human LPA1 was obtained by PCR of the reverse transcription reaction. The nucleotide sequence of the cloned human LPA1 was determined by sequencing and confirmed to be identical to the published human LPA1 sequence (An et al. Biochem. Biophys. Res. Commun. 231:619 (1997). The cDNA was cloned into the pcDNA5/FRT expression plasmid and transfected in CHO cells using lipofectamine 2000 (Invitrogen Corp., USA). Clones stably expressing human LPA1 were selected using hygromycin and identified as cells that show Ca-influx in response to LPA.
(§1) Human LPA1 or LPA3 expressing CHO cells are seeded at 20,000-45,000 cells per well in a 96-well poly-D-lysine coated plate one or two days before the assay. Prior to the assay, the cells are washed once with PBS and then cultured in serum-free media overnight. On the day of the assay, a calcium indicator dye (Calcium 4, Molecular Devices) in assay buffer (HBSS with Ca^2+and Mg^2+ and containing 20 mM Hepes and 0.3% fatty-acid free human serum albumin) is added to each well and incubation continued for 1 hour at 37° C. 10 μl of test compounds in 2.5% DMSO are added to the cells and incubation continued at room temperature for 30 minutes. Cells are the stimulated by the addition of 10 nM LPA and intracellular Ca^2+ measured using the Flexstation 3 (Molecular Devices). IC50s are determined using Graphpad prism analysis of drug titration curves.
In general terms: Calcium assays in cells follow changes in intracellular calcium, usually with a dye or a luminescent sensor.

Experiment [2] addresses T2, Human LPA3 (Homo sapiens, UniProt Q9UBY5).
T2 construct: The full-length cDNA fragment for human LPA3 was obtained by PCR from the vector; expressed in transfected cells; cDNA from the Missouri S&T cDNA Resource Center
T2 sequence (Q9UBY5 1-353): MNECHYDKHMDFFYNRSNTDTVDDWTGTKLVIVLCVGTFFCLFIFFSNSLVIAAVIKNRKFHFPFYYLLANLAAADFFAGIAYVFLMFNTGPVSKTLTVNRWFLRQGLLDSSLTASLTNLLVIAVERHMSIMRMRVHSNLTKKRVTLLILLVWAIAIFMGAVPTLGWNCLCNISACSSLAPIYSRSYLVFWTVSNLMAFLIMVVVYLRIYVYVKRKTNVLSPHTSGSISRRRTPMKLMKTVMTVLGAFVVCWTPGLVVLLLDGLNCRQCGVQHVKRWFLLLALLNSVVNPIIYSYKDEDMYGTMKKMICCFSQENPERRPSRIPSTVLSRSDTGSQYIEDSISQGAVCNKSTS
Description: LPA3 calcium flux assay. It is filed as cell-based. As to conditions: CHO cells expressing human LPA3, 10 nM LPA; read-out: HLPA3 Ca Flux IC50. Here is the method:
A vector containing the human LPA3 receptor cDNA was obtained from the Missouri S&T cDNA Resource Center (www.cdna.org). The full-length cDNA fragment for human LPA3 was obtained by PCR from the vector. The nucleotide sequence of the cloned human LPA3 was determined by sequencing and confirmed to be identical to the published human LPA3 sequence (NCBI accession number NM_012152). The cDNA was cloned into the pcDNA5/FRT expression plasmid and transfected in CHO cells using lipofectamine 2000 (Invitrogen Corp., USA). Clones stably expressing human LPA3 were selected using hygromycin and identified as cells that show Ca-influx in response to LPA.
as §1

Where only a bound is given, the exact number is not on record here.

T1 sequence (Q92633 whole entry): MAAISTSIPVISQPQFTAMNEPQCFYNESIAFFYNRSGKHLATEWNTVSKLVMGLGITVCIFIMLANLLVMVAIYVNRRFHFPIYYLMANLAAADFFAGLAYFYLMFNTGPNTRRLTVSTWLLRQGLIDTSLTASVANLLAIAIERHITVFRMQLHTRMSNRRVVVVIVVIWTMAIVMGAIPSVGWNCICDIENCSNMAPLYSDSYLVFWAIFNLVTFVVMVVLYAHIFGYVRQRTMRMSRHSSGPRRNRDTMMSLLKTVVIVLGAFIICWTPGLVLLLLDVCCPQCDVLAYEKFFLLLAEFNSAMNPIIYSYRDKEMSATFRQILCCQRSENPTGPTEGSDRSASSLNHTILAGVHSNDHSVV

For `Cc1noc(-c2ccc(-c3ccc(C4(C(=O)O)CC4)cc3)cc2)c1NC(=O)OC(C)c1ccccc1` (racemic) [Compound 34, 1-{4′-[3-Methyl-4-(1-phenyl-ethoxycarbonylamino)-isoxazol-5-yl]-biphenyl-4-yl}-cyclopropanecarboxylic acid], the values for the concentration for half-maximal inhibition (IC50) in experiment [1] and in experiment [2] were < 0.3 µM and 1 to 10 µM, respectively.

Consider `Cc1noc(-c2ccc(-c3ccc(C4(C(=O)O)CC4)cc3)cc2)c1NC(=O)O[C@@H](C)C1CC1` (single isomer, unassigned) [Compound 5], for which, in experiment [1], the IC50 lay within 1 to 10 µM.

Turning to `Cc1noc(-c2ccc(-c3ccc(C4(C(=O)O)CC4)cc3)cc2)c1NC(=O)O[C@H](C)C1CC1` (single isomer, unassigned) [Compound 6], the IC50 in experiment [1] was < 0.3 µM; in experiment [2], > 10 µM.

As for `Cc1noc(-c2ccc(-c3ccc(C4(C(=O)O)CC4)cc3)cc2)c1NC(=O)OC(C)c1ccc(C(F)(F)F)cc1` (single isomer, unassigned) [Compound 13, 1-(4′-{3-Methyl-4-[1-(4-trifluoromethyl-phenyl)-ethoxycarbonylamino]-isoxazol-5-yl}-biphenyl-4-yl)-cyclopropanecarboxylic acid], in experiment [1], the IC50 was 1 to 10 µM.

As to `Cc1noc(-c2ccc(-c3ccc(C4(C(=O)O)CC4)cc3)cc2)c1NC(=O)OC(C)c1ccc(C(F)(F)F)cc1` (single isomer, unassigned) [Compound 14, 1-(4′-{3-Methyl-4-[1-(4-trifluoromethyl-phenyl)-ethoxycarbonylamino]-isoxazol-5-yl}-biphenyl-4-yl)-cyclopropanecarboxylic acid], the IC50 is < 0.3 µM in experiment [1] and 1 to 10 µM in experiment [2].

As to `Cc1noc(-c2ccc(-c3ccc(C4(C(=O)O)CC4)cc3)cc2)c1NC(=O)OC(C)C1CCCCC1` (stereo not drawn) [Compound 2, 1-{4′-[4-(1-Cyclohexyl-ethoxycarbonylamino)-3-methyl-isoxazol-5-yl]-biphenyl-4-yl}-cyclopropanecarboxylic acid], the values for the concentration for half-maximal inhibition (IC50) in experiment [1] and in experiment [2] were < 0.3 µM and 1 to 10 µM, respectively.

`Cc1ccccc1[C@@H](C)OC(=O)Nc1c(C)noc1-c1ccc(-c2ccc(C3(C(=O)O)CC3)cc2)cc1` [Compound 3, 1-{4′-[3-Methyl-4-((R)-1-o-tolyl-ethoxycarbonylamino)-isoxazol-5-yl]-biphenyl-4-yl}-cyclopropanecarboxylic acid]: the IC50 is < 0.3 µM in experiment [1] and 0.3 to 1 µM in experiment [2].

As to `Cc1noc(-c2ccc(-c3ccc(C4(C(=O)O)CC4)cc3)cc2)c1NC(=O)OCC1CC1` [Compound 7, 1-[4′-(4-Cyclopropylmethoxycarbonylamino-3-methyl-isoxazol-5-yl)-biphenyl-4-yl]-cyclopropanecarboxylic acid], the IC50 in experiment [1] is < 0.3 µM; in experiment [2], > 10 µM.

For `Cc1noc(-c2ccc(-c3ccc(C4(C(=O)O)CC4)cc3)cc2)c1NC(=O)O[C@H](C)c1ccccc1C(F)(F)F` [Compound 9, 1-(4′-{3-Methyl-4-[(R)-1-(2-trifluoromethyl-phenyl)-ethoxycarbonylamino]-isoxazol-5-yl}-biphenyl-4-yl)-cyclopropanecarboxylic acid], the half-inhibitory concentration (IC50) in experiment [1] was < 0.3 µM; in experiment [2], 1 to 10 µM.

Turning to `Cc1noc(-c2ccc(-c3ccc(C4(C(=O)O)CCC4)cc3)cc2)c1NC(=O)O[C@H](C)c1ccccc1` [Compound 10, 1-{4′-[3-Methyl-4-((R)-1-phenyl-ethoxycarbonylamino)-isoxazol-5-yl]-biphenyl-4-yl}-cyclobutanecarboxylic acid], the IC50 in experiment [1] was < 0.3 µM; in experiment [2], 1 to 10 µM.

As to `Cc1noc(-c2ccc(-c3ccc(C4(C(=O)O)CCCC4)cc3)cc2)c1NC(=O)O[C@H](C)c1ccccc1` [Compound 11, 1-{4′-[3-Methyl-4-((R)-1-phenyl-ethoxycarbonylamino)-isoxazol-5-yl]-biphenyl-4-yl}-cyclopentanecarboxylic acid], the IC50 was < 0.3 µM in experiment [1] and 1 to 10 µM in experiment [2].

As for `COc1ccccc1C(C)OC(=O)Nc1c(C)noc1-c1ccc(-c2ccc(C3(C(=O)O)CC3)cc2)cc1` (stereo not drawn) [Compound 12, 1-(4′-{4-[1-(2-Methoxy-phenyl)-ethoxycarbonylamino]-3-methyl-isoxazol-5-yl}-biphenyl-4-yl)-cyclopropanecarboxylic acid], the IC50 in experiment [1] was < 0.3 µM.

As for `Cc1noc(-c2ccc(-c3ccc(C4(C(=O)O)CC4)cc3)cc2)c1NC(=O)OC(C)c1cccc(C#N)c1` (stereo not drawn) [Compound 15, 1-(4′-{4-[1-(3-Cyano-phenyl)-ethoxycarbonylamino]-3-methyl-isoxazol-5-yl}-biphenyl-4-yl)-cyclopropanecarboxylic acid], the results for the 50% inhibitory concentration (IC50) in experiment [1] and in experiment [2] were < 0.3 µM and 1 to 10 µM, respectively.

`Cc1noc(-c2ccc(-c3ccc(C4(C(=O)O)CC4)cc3)cc2)c1NC(=O)O[C@H](C)c1ccc(C#N)cc1` [Compound 18, 1-(4′-{4-[(R)-1-(4-Cyano-phenyl)-ethoxycarbonylamino]-3-methyl-isoxazol-5-yl}-biphenyl-4-yl)-cyclopropanecarboxylic acid]: the concentration for half-maximal inhibition (IC50) in experiment [1] is < 0.3 µM; in experiment [2], 1 to 10 µM.

Turning to `Cc1noc(-c2ccc(-c3ccc(C4(C(=O)O)CC4)cc3)cc2)c1NC(=O)O[C@H](C)C1CCC1` [Compound 20, 1-{4′-[4-((R)-1-Cyclobutyl-ethoxycarbonylamino)-3-methyl-isoxazol-5-yl]-biphenyl-4-yl}-cyclopropanecarboxylic acid], the IC50 in experiment [1] is < 0.3 µM; in experiment [2] it was 1 to 10 µM.

Turning to `Cc1noc(-c2ccc(-c3ccc(C4(C(=O)O)CC4)cc3)cc2)c1NC(=O)O[C@H](C)c1cccc(C(F)(F)F)c1` [Compound 22, 1-(4′-{3-Methyl-4-[(R)-1-(3-trifluoromethyl-phenyl)-ethoxycarbonylamino]-isoxazol-5-yl}-biphenyl-4-yl)-cyclopropanecarboxylic acid], the half-maximal inhibitory concentration (IC50) in experiment [1] and in experiment [2] was < 0.3 µM in each case.

Turning to `COc1cccc([C@@H](C)OC(=O)Nc2c(C)noc2-c2ccc(-c3ccc(C4(C(=O)O)CC4)cc3)cc2)c1` [Compound 23, 1-(4′-{4-[(R)-1-(3-Methoxy-phenyl)-ethoxycarbonylamino]-3-methyl-isoxazol-5-yl}-biphenyl-4-yl)-cyclopropanecarboxylic acid], the IC50 in experiment [1] was < 0.3 µM; in experiment [2], 1 to 10 µM.

For `COc1ccc([C@@H](C)OC(=O)Nc2c(C)noc2-c2ccc(-c3ccc(C4(C(=O)O)CC4)cc3)cc2)cc1` [Compound 24, 1-(4′-{4-[(R)-1-(4-Methoxy-phenyl)-ethoxycarbonylamino]-3-methyl-isoxazol-5-yl}-biphenyl-4-yl)-cyclopropanecarboxylic acid], the IC50 was < 0.3 µM in experiment [1] and > 10 µM in experiment [2].

On to `Cc1noc(-c2ccc(-c3ccc(C4(C(=O)O)CC4)cc3)cc2)c1NC(=O)OC(C)c1cccc(Br)c1` (stereo not drawn) [Compound 25, 1-(4′-{4-[1-(3-Bromo-phenyl)-ethoxycarbonylamino]-3-methyl-isoxazol-5-yl}-biphenyl-4-yl)-cyclopropanecarboxylic acid], for which the figures for the 50% inhibitory concentration (IC50) in experiment [1] and in experiment [2] were < 0.3 µM and 0.3 to 1 µM, respectively.

As to `Cc1noc(-c2ccc(-c3ccc(C4(C(=O)O)CC4)cc3)cc2)c1NC(=O)OC(C)c1cccc(Cl)c1` (stereo not drawn) [Compound 26, 1-(4′-{4-[1-(3-Chloro-phenyl)-ethoxycarbonylamino]-3-methyl-isoxazol-5-yl}-biphenyl-4-yl)-cyclopropanecarboxylic acid], the results for the IC50 in experiment [1] and in experiment [2] were < 0.3 µM and 0.3 to 1 µM, respectively.

With `Cc1noc(-c2ccc(-c3ccc(C4(C(=O)O)CC4)cc3)cc2)c1NC(=O)O[C@@H](C)c1ccccc1` [Compound 27, 1-{4′-[3-Methyl-4-((S)-1-phenyl-ethoxycarbonylamino)-isoxazol-5-yl]-biphenyl-4-yl}-cyclopropanecarboxylic acid], the IC50 in experiment [1] was < 0.3 µM; in experiment [2], > 10 µM.
